Common to all, as to type: functional, Mus musculus
The test system of assay [1] is MC-38. The experiment in a line: Percent necrosis activity against subcutaneous C38 colon tumor cells in vivo. Further details: concentration or dose not given beside the values.
Assay [2] relates to MC-38. Kind of assay: Optimal dose 24 hr after intraperitoneal administration against C38 colon tumor cells in mice.
Assay [3] deals with MC-38. The experiment in a line: Percent necrosis activity against subcutaneous C38 colon tumor cells in vivo; range is 50-90%.

Where only a bound is given, the exact number is not on record here.

`CCOc1cccc2c(=O)c3cccc(CC(=O)O)c3oc12` returned an Activity with MC-38 [1] of more than 90%. This molecule also yielded an OD in the assay with MC-38 [2] of 330 mg/kg.
Consider `O=C(O)Cc1cccc2c(=O)c3cccc(F)c3oc12`, for which the OD in the assay on MC-38 [2] is 330 mg/kg.
As to `CCc1cccc2c(=O)c3cccc(CC(=O)O)c3oc12`, the Activity in the assay on MC-38 [1] is reported as more than 90%. The molecule further came in with an OD in the assay with MC-38 [2] of 100 mg/kg.
With `O=C(O)Cc1cccc2c(=O)c3cccc(CC(=O)O)c3oc12`, the OD with MC-38 [2] turned out to be 330 mg/kg.
In the assay on MC-38 [3], `COc1cccc2c(=O)c3cccc(CC(=O)O)c3oc12` showed an Activity of 90%. The same molecule registered an OD in the assay with MC-38 [2] of 150 mg/kg.
`O=C(O)Cc1cccc2c(=O)c3cccc(Cl)c3oc12` displayed an Activity with MC-38 [1] of more than 90%. For the same molecule, the OD with MC-38 [2] was 150 mg/kg.
`O=C(O)Cc1cccc2c(=O)c3cccc(C(F)(F)F)c3oc12` showed an Activity with MC-38 [3] of 90%. For the same molecule, the OD with MC-38 [2] amounted to 220 mg/kg.
On the same counts, the results for `CCCOc1cccc2c(=O)c3cccc(CC(=O)O)c3oc12` are 90% and 150 mg/kg.
In the assay with MC-38 [2], `O=C(O)Cc1cccc2c(=O)c3cccc(O)c3oc12` showed an OD of 330 mg/kg.
For `Nc1cccc2c(=O)c3cccc(CC(=O)O)c3oc12`, in the assay with MC-38 [3], the Activity is 90%. This molecule displayed an OD in the assay on MC-38 [2] of 1125 mg/kg.
`CC(=O)Nc1cccc2c(=O)c3cccc(CC(=O)O)c3oc12` showed an OD in the assay with MC-38 [2] of 330 mg/kg.
`O=C(O)Cc1cccc2c(=O)c3ccccc3oc12` registered an Activity in the assay with MC-38 [1] of more than 90%. The molecule further displayed an OD in the assay with MC-38 [2] of 220 mg/kg.
`O=C(O)Cc1cccc2c(=O)c3cccc([N+](=O)[O-])c3oc12` had an Activity with MC-38 [3] of 90%. Moreover, the OD in the assay on MC-38 [2] came to 330 mg/kg.
The molecule `Cc1cccc2c(=O)c3cccc(CC(=O)O)c3oc12` displayed an Activity in the assay with MC-38 [1] of more than 90%. The molecule further showed an OD in the assay with MC-38 [2] of 45 mg/kg.
The molecule `O=C(O)Cc1cccc2c(=O)c3cccnc3oc12` returned an OD in the assay on MC-38 [2] of 750 mg/kg.
In turn, `O=C(O)Cc1cccc2c(=O)c3cccc(-c4ccccc4)c3oc12` returned an OD in the assay with MC-38 [2] of 750 mg/kg.
In the assay on MC-38 [3], `CCCCOc1cccc2c(=O)c3cccc(CC(=O)O)c3oc12` showed an Activity of 90%. The OD in the assay with MC-38 [2] turned out to be 220 mg/kg.
Regarding `O=C(O)Cc1cccc2c(=O)c3cccc(Br)c3oc12`, in the assay with MC-38 [2], the OD was found to be 100 mg/kg.

(Values after ChEMBL document CHEMBL1124762, “Potential antitumor agents. 60. Relationships between structure and in vivo colon 38 activity for 5-substituted 9-oxoxanthene-4-acetic acids” (1990).)
